Numbers after ± are expanded uncertainties.
Experiment: xn = mol fraction of the nth substance listed
Settings: 101 kPa, Liquid; for viscosity: Capillary tube (Ostwald / Ubbelohde) method; for mass density: Vibrating tube method

CCn1cc[n+](C)c1.O=S(=O)([N-]S(=O)(=O)C(F)(F)F)C(F)(F)F + CCO
Settings	mass density [kg/m3]	viscosity [mPa·s]
293.15 K, x1 = 0.1008	1038.4 ± 0.3	1.612 ± 0.065
293.15 K, x1 = 0.1971	1179.41 ± 0.3	2.78 ± 0.12
293.15 K, x1 = 0.3	1276.68 ± 0.26	4.6 ± 0.19
293.15 K, x1 = 0.3992	1341.77 ± 0.28	7.429 ± 0.3
293.15 K, x1 = 0.5014	1391.85 ± 0.33	10.65 ± 0.43
293.15 K, x1 = 0.5955	1427.56 ± 0.39	13.87 ± 0.57
293.15 K, x1 = 0.6966	1458.64 ± 0.46	17.76 ± 0.72
293.15 K, x1 = 0.7982	1484.18 ± 0.53	21.8 ± 0.9
293.15 K, x1 = 0.9041	1506.32 ± 0.61	28.74 ± 1.2
298.15 K, x1 = 0.1008	1034.14 ± 0.3	1.478 ± 0.06
298.15 K, x1 = 0.1971	1175.21 ± 0.28	2.35 ± 0.096
298.15 K, x1 = 0.3	1272.19 ± 0.26	4.15 ± 0.17
298.15 K, x1 = 0.3992	1337.18 ± 0.28	6.479 ± 0.26
298.15 K, x1 = 0.5014	1387.12 ± 0.33	9.232 ± 0.38
298.15 K, x1 = 0.5955	1422.72 ± 0.39	12.05 ± 0.49
298.15 K, x1 = 0.6966	1453.69 ± 0.45	15.18 ± 0.62
298.15 K, x1 = 0.7982	1479.17 ± 0.53	18.7 ± 0.76
298.15 K, x1 = 0.9041	1501.31 ± 0.61	24.52 ± 1
303.15 K, x1 = 0.1008	1029.79 ± 0.3	1.25 ± 0.051
303.15 K, x1 = 0.1971	1170.59 ± 0.28	2.16 ± 0.088
303.15 K, x1 = 0.3	1267.5 ± 0.26	3.728 ± 0.15
303.15 K, x1 = 0.3992	1332.39 ± 0.28	5.697 ± 0.23
303.15 K, x1 = 0.5014	1382.49 ± 0.33	8.1 ± 0.33
303.15 K, x1 = 0.5955	1417.99 ± 0.38	10.31 ± 0.42
303.15 K, x1 = 0.6966	1448.78 ± 0.45	13.13 ± 0.54
303.15 K, x1 = 0.7982	1474.28 ± 0.52	16.12 ± 0.66
303.15 K, x1 = 0.9041	1496.34 ± 0.6	20.9 ± 0.86
308.15 K, x1 = 0.1008	1025.12 ± 0.3	1.12 ± 0.045
308.15 K, x1 = 0.1971	1166.55 ± 0.27	1.9 ± 0.077
308.15 K, x1 = 0.3	1263.4 ± 0.26	3.157 ± 0.13
308.15 K, x1 = 0.3992	1327.88 ± 0.28	5.055 ± 0.21
308.15 K, x1 = 0.5014	1377.68 ± 0.33	7.177 ± 0.29
308.15 K, x1 = 0.5955	1413.41 ± 0.38	9.109 ± 0.37
308.15 K, x1 = 0.6966	1443.98 ± 0.45	11.47 ± 0.47
308.15 K, x1 = 0.7982	1469.4 ± 0.52	14.04 ± 0.57
308.15 K, x1 = 0.9041	1491.39 ± 0.6	18.05 ± 0.74
313.15 K, x1 = 0.1008	1021.47 ± 0.3	1.101 ± 0.045
313.15 K, x1 = 0.1971	1162.51 ± 0.27	1.645 ± 0.067
313.15 K, x1 = 0.3	1259.31 ± 0.25	2.64 ± 0.11
313.15 K, x1 = 0.3992	1323.62 ± 0.28	4.404 ± 0.18
313.15 K, x1 = 0.5014	1372.99 ± 0.33	6.199 ± 0.25
313.15 K, x1 = 0.5955	1408.57 ± 0.38	7.954 ± 0.32
313.15 K, x1 = 0.6966	1439.3 ± 0.44	10.01 ± 0.41
313.15 K, x1 = 0.7982	1464.39 ± 0.51	12.34 ± 0.5
313.15 K, x1 = 0.9041	1486.41 ± 0.6	15.74 ± 0.64
318.15 K, x1 = 0.1008	1019.1 ± 0.3	1.001 ± 0.041
318.15 K, x1 = 0.1971	1159.51 ± 0.27	1.412 ± 0.057
318.15 K, x1 = 0.3	1255.23 ± 0.25	2.459 ± 0.1
318.15 K, x1 = 0.3992	1319.8 ± 0.28	3.945 ± 0.16
318.15 K, x1 = 0.5014	1368.71 ± 0.32	5.603 ± 0.23
318.15 K, x1 = 0.5955	1404 ± 0.38	7.141 ± 0.29
318.15 K, x1 = 0.6966	1434.53 ± 0.44	8.965 ± 0.36
318.15 K, x1 = 0.7982	1459.6 ± 0.51	10.93 ± 0.44
318.15 K, x1 = 0.9041	1481.54 ± 0.59	13.84 ± 0.56
323.15 K, x1 = 0.1008	1015.54 ± 0.3	0.987 ± 0.04
323.15 K, x1 = 0.1971	1156.54 ± 0.33	1.307 ± 0.053
323.15 K, x1 = 0.3	1252.11 ± 0.27	2.317 ± 0.094
323.15 K, x1 = 0.3992	1316.24 ± 0.28	3.656 ± 0.15
323.15 K, x1 = 0.5014	1364.61 ± 0.33	5.195 ± 0.21
323.15 K, x1 = 0.5955	1399.5 ± 0.38	6.5 ± 0.26
323.15 K, x1 = 0.6966	1429.97 ± 0.44	8.116 ± 0.33
323.15 K, x1 = 0.7982	1454.97 ± 0.51	9.799 ± 0.4
323.15 K, x1 = 0.9041	1476.73 ± 0.59	12.28 ± 0.5

— the NIST ThermoML archive (doi:10.1021/je200922s)
